Laboratory results from patent US20250064761A1, “SUBSTITUTED BENZAMIDES AND THEIR USE IN THERAPY” (PHARMACYL AB, priority 2018, published 2025).
Counter-ions that a name gives are not always drawn.

What was measured:
[1] = system: LPS-induced TNF-production in RAW264.7 murine macrophage cells; experiment: Suppression of LPS-induced TNF-α production in macrophages (ELISA); type: cell-based; conditions: Mus musculus, RAW264.7, read-out: % Inhibition of TNF-production
Description: The RAW264.7 macrophage line was maintained in DMEM supplemented with 5% FBS at 37° C. in a 5% CO2-humidified air environment. The RAW264.7 cells were seeded in 96-well plates at a density of 1×10^5/ml and a volume of 200 μl/well. The cells were incubated for 24 h in medium supplemented with 10% FBS and were then pre-incubated with or without the indicated concentrations of test substances for 2 h prior to the addition of LPS (1 μg/ml). The supernatants were subsequently harvested at various time points and production of the proinflammatory cytokine TNF-α in the culture medium was determined using a commercially available enzyme-linked immunosorbent assay (ELISA) kit according to the manufacturer's protocol.
Effects of some AABZs of the invention at 1 mM on LPS-induced TNF-production in RAW264.7 murine macrophage cells are shown in Table 2.

[2] = system: DSS induced colitis in Balb/c mice; experiment: Dextran sulfate sodium (DSS) induced inflammatory bowel disease in mice; type: in vivo; parameters: key to Blood in the Stool score LS means ± SE: 0 = normal, 2 = Hemoccult+, 4 = gross bleeding; key to Disease Activity Index LS means ± SE: sum of stool, blood and weight-loss scores (each 0-4), max 12
Description: The experiment was performed using 6- to 8-week old female Balb/c mice after a one-week acclimatization period. The mice weighed 18-25 g, were purchased from Taconic (Denmark) and were maintained in a temperature and light-controlled facility with free access to standard rodent chow and water. Mice were randomized to the respective groups five days before start of treatment and were kept 5 to 6 animals […] per cage. […] The DSS intake was assessed daily. SASP (from Sigma-Aldrich, Sweden) was first dissolved in 0.2 M sodium hydroxide (NaOH) at a concentration higher than the required final concentration. Phosphate buffered saline (PBS) was added to the desired concentration and the pH was adjusted to 7.5-8.0 with NaOH or hydrochloric acid. SASP remained completely dissolved at this pH. Cpd A was dissolved in PBS to the desired concentration. All animal groups had free access to 5% DSS water solution for the entire test period. Treatments were administered from day 0 to day 5, either orally by gavage (SASP) or intraperitoneally (Cpd A), and in an administration volume of 5 ml/kg, twice daily with approximately an 8-hour interval. The control group (DSS only) received water (0.2 ml) orally twice daily.
The parameters recorded in the experiment were stool consistency (0, normal; 2, loose stools; 4, watery diarrhoea), occurrence of blood in the stool (0, normal; 2, Hemoccult+; 4, gross bleeding), and body weight loss (0, none; 1, 1-5%; 2, 5-10%; 3, 10-20%; 4, >20%). Disease activity index (DAI) was calculated by summarizing the scores of these three parameters. Also the colon length and the colonic content of myeloperoxidase (MPO) were recorded. Data was statistically evaluated with analysis of variance (ANOVA). Least-squares means (LS means), and standard error (SE) of LS means were calculated.

[3] = system: collagen-induced arthritis in DBA/1 mice; experiment: Collagen-induced arthritis; type: in vivo; conditions: 200 mg/kg/day in drinking water from day 14 to day 49
Description: The experiment was performed using 9-week old male DBA/1 mice after a two-week acclimatization period. The mice were purchased from B&M (Denmark), and were maintained in a temperature and light-controlled facility with free access to standard rodent chow and water. Following the acclimatization period, the mice (10 per treatment group) were anesthesized with Enflurane and immunized intradermally in the base of the tail with […] of a 1:1 emulsion consisting of Freund's Complete Adjuvant H37Ra (Difco) and 2 mg/mL bovine type II collagen (Elastin Products, Owensville, MO) in 0.1 M acetic acid. On day 14 post-immunization, the mice were given ad lib access to drinking water containing Cpd A, with treatment continuing daily until termination of the experiment (day 49). The Cpd A intake was monitored by weighing the drinking bottles at the water renewal twice per week. The control group received water ad lib.
The mice were monitored for clinical signs of arthritis three times a week from immunization to day 49. […] The four measurements were summed for each mouse, and group averages were calculated. Mice with a score >12 were sacrificed. In the scoring protocol, the last observation carried forward (LOCF) method was used.
Mean onset day was defined as the mean day of onset in mice being affected. […]
Statistical significance was determined using Mann-Whitney Rank Sum test. […]

dopamine D2 receptor = dopamine D2 receptor (Rattus norvegicus, UniProt P61169); type: binding; conditions: in vitro; 125I-spiperone
Sequence of dopamine D2 receptor (P61169 whole entry, looked up): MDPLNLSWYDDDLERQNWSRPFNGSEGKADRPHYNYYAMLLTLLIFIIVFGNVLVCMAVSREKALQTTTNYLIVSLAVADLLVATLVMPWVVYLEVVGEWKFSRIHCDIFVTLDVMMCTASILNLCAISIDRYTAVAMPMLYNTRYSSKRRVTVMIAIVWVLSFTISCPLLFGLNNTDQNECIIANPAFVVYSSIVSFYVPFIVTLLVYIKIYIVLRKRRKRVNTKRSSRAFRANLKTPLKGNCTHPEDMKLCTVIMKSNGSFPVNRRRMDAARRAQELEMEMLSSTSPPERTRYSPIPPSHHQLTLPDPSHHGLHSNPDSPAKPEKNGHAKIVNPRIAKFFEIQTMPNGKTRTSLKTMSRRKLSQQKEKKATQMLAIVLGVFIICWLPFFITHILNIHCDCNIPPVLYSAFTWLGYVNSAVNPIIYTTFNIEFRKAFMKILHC

SMILES: CCN(CC)CCNC(=O)c1ccc(NC(=O)C(C)C)c(Cl)c1 [4-Isobutyrylamino-3-chloro-N-[2-(diethylamino)ethyl]benzamide hydrochloride]
- inhibition at 1000 µM [1]: 63%

SMILES: CCC(=O)Nc1ccc(C(=O)NCCN(CC)CC)cc1Cl [4-Propanoylamino-3-chloro-N-[2-(diethylamino)ethyl]benzamide hydrochloride]
- inhibition at 1000 µM [1]: 50%

SMILES: CCN(CC)CCNC(=O)c1ccc(NC(C)=O)c(Cl)c1 [Cpd A, 4-Acetamido-3-chloro-N-[2-(diethylamino)ethyl]benzamide hydrochloride]
- Disease Activity Index score reduction by Cpd A versus SASP treatment ([2]; Cpd A 100 mg/kg/day bid ip vs SASP 40 mg/kg/day bid po, p<0.016): 60%
- Blood in the Stool Percent Reduction of Score vs control ([2]; day 5, 50 mg/kg/day bid ip): 9%
- Blood in the Stool score LS means ± SE ([2]; day 5, 50 mg/kg/day bid ip): 2.2 ± 0.3
- Disease Activity Index LS means ± SE ([2]; day 5, 50 mg/kg/day bid ip): 6.4 ± 0.5
- Disease Activity Index Percent Reduction of Score vs control ([2]; day 5, 50 mg/kg/day bid ip): 7%
- Blood in the Stool Percent Reduction of Score vs control ([2]; day 5, 100 mg/kg/day bid ip): 96%
- Disease Activity Index LS means ± SE ([2]; day 5, 100 mg/kg/day bid ip): 1.7 ± 1.0
- Disease Activity Index Percent Reduction of Score vs control ([2]; day 5, 100 mg/kg/day bid ip): 75%
- Blood in the Stool score LS means ± SE ([2]; day 5, 100 mg/kg/day bid ip, hydrochloride): 0.1±0.5
- delay of mean onset of disease compared to the control group ([3]; p=0.02): 5.8 days
- reduction of severity of arthritis score compared to the control group ([3]; p=0.05): 1.6
- inhibition at 1000 µM [1]: 45%
- affinity for the dopamine D2 subtype receptor (in words) (dopamine D2 receptor): very low affinity

SMILES: O=C(O)c1cc(/N=N/c2ccc(S(=O)(=O)Nc3ccccn3)cc2)ccc1O [SASP, sulfasalazine, reference compound]
- frequency of diarrhoea (stool consistency score of 2 and 4) ([2]; day 3, 40 mg/kg/day bid po): 8%
- Blood in the Stool Percent Reduction of Score vs control ([2]; day 5, 40 mg/kg/day bid po): 42%
- Blood in the Stool score LS means ± SE ([2]; day 5, 40 mg/kg/day bid po): 1.4±0.2
- Disease Activity Index LS means ± SE ([2]; day 5, 40 mg/kg/day bid po): 4.4 ± 0.4
- Disease Activity Index Percent Reduction of Score vs control ([2]; day 5, 40 mg/kg/day bid po): 36%
- frequency of diarrhoea (stool consistency score of 2 and 4) ([2]; day 5, 40 mg/kg/day bid po): 71%
